# From patent US20090076152A1, “Novel Compounds Active as Muscarinic Receptor Antagonists” (priority 2007, published 2009)
# Target: T1, human muscarinic M3 receptor (Homo sapiens, UniProt P20309)
# T1 construct: expressed in transfected cells
# Test: hM3 β-Lac potency assay (NFAT-Betalactamase reporter in CHO-K1 cells)
# Conditions: CHO cells recombinantly expressing human M3, NFAT β-lactamase reporter; inhibition of 80 nM carbamyl choline signal, 4 h; IC50 converted to Ki by Cheng-Prusoff; read-out: Cell based β-lactamase M3 Ki
# Method: M3 potency was determined in CHO-K1 cells transfected with the NFAT-Betalactamase gene. CHO (Chinese Hamster Ovary) cells recombinantly expressing the human muscarinic M3 receptor were transfected with the NFAT_β-Lac_Zeo plasmid. Cells were grown in DMEM with Glutamax-1, supplemented with 25 mM HEPES(Life Technologies 32430-027), containing 10% FCS (Foetal Calf Serum; Sigma F-7524), […] Sodium pyruvate (Sigma S-8636), NEM (non-Essential Amino Acids; Invitrogen 11140-035) and 200 μg/ml Zeocin (Invitrogen R250-01).
# Cells were harvested for assay when they reached 80-90% confluency using enzyme free cell Dissociation Solution (Life technologies 13151-014) incubated with the cells for 5 min at 37° C. in an atmosphere containing 5% CO2. Detached cells were collected in warmed growth media and centrifuged at 2000 rpm for 10 min, washed in PBS (Phosphate Buffered Saline; Life Technologies 14190-094) and centrifuged again as just described. The cells were re-suspended at 2×10^5 cells/ml in growth medium (composition as described above). 20 μl of this cell suspension was added to each well of a 384 well black clear bottomed plate (Greiner Bio One 781091-PFI). The assay buffer used was PBS supplemented with 0.05% Pluronic F-127 (Sigma 9003-11-6) and 2.5% DMSO. Muscarinic M3 receptor signalling was stimulated using 80 nM carbamyl choline (Aldrich N240-9) incubated with the cells for 4 h at 37° C./5% CO2 and monitored at the end of the incubation period using a Tecan SpectraFluor+ plate reader (λ—excitation 405 nm, emission 450 nm and 503 nm). M3 receptor antagonists under test were added to the assay at the beginning of the 4 h incubation period and compound activity measured as the concentration dependent inhibition of the carbamyl choline induced signal. Inhibition curves were plotted and IC50 values generated using a 4-parameter sigmoid fit and converted to Ki values using the Cheng-Prusoff correction and the KD value for carbamyl choline in the assay.
# T1 sequence (P20309 whole entry): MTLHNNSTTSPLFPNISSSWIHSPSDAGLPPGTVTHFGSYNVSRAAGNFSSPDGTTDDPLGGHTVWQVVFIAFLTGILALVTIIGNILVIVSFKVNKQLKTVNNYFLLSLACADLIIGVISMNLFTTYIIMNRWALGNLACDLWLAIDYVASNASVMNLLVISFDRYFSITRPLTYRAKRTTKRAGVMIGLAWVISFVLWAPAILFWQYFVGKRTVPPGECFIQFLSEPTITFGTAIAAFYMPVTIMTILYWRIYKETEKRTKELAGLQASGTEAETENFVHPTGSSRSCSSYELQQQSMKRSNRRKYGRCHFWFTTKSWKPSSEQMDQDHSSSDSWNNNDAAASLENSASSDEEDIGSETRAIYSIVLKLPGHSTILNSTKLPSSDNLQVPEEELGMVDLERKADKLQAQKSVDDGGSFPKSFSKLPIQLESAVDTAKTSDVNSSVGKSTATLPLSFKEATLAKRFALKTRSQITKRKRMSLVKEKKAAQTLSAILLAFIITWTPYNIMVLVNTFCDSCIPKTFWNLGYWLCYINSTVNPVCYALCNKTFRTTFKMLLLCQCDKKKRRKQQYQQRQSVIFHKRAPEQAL
row,SMILES,Ki
1,"CC(C)N(CC[C@H](c1ccccc1)c1cc(CCOc2ccc(CCNCc3cc(F)c(O)c(Cl)c3)cc2)ccc1O)C(C)C [Example 20, 2-Chloro-4-{[2-(4-{2-[3-((1R)-3-diisopropylamino-1-phenyl-propyl)-4-hydroxy-phenyl]-ethoxy}-phenyl)-ethylamino]-methyl}-6-fluoro-phenol]",> 5.89 nM
2,"CC(C)N(CC[C@H](c1ccccc1)c1cc(CCOc2ccc(CCNCc3cc(O)cc(O)c3)cc2)ccc1O)C(C)C [Example 21, 5-{[2-(4-{2-[3-((1R)-3-Diisopropylamino-1-phenyl-propyl)-4-hydroxy-phenyl]-ethoxy}-phenyl)-ethylamino]-methyl}-benzene-1.3-diol]",> 5.75 nM
3,"CC(C)N(CC[C@H](c1ccccc1)c1cc(CCOc2ccc(CCNCc3ccc(O)c(Cl)c3)cc2)ccc1O)C(C)C [Example 12, 2-chloro-4-[({2-[4-(2-{3-[(1R)-3-(diisopropylamino)-1-phenylpropyl]-4-hydroxyphenyl}ethoxy)phenyl]ethyl}amino)methyl]phenol]",> 12.5 nM
4,"CC(C)N(CC[C@H](c1ccccc1)c1cc(CCOc2ccc(CCNCc3cccc(Cl)c3)cc2)ccc1O)C(C)C [Example 10, 4-(2-{4-[2-(3-Chloro-benzylamino)-ethyl]-phenoxy}-ethyl)-2-((1R)-3-diisopropylamino-1-phenyl-propyl)-phenol]",7.73 nM
5,"CC(C)N(CC[C@H](c1ccccc1)c1cc(CCOc2ccc(CCNCc3cc(Cl)c(O)c(Cl)c3)cc2)ccc1O)C(C)C [Example 16, 2,6-Dichloro-4-{[2-(4-{2-[3-((1R)-3-diisopropylamino-1-phenyl-propyl)-4-hydroxy-phenyl]-ethoxy}-phenyl)-ethylamino]-methyl}-phenol]",> 6.87 nM
6,"CC(C)N(CC[C@H](c1ccccc1)c1cc(CCOc2ccc(CCNC3CCCCC3)cc2)ccc1O)C(C)C [Example 11, 4-{2-[4-(2-Cyclohexylamino-ethyl)-phenoxy]-ethyl}-2-((1R)-3-diisopropylamino-1-phenyl-propyl)-phenol]",6.06 nM
7,"CC(C)N(CC[C@H](c1ccccc1)c1cc(CCOc2ccc(CCNCc3ccc(O)c(F)c3)cc2)ccc1O)C(C)C [Example 13, 2-[(1R)-3-(diisopropylamino)-1-phenylpropyl]-4-[2-(4-{2-[(3-fluoro-4-hydroxybenzyl)amino]ethyl}phenoxy)ethyl]phenol]",> 12.1 nM
8,"CC(C)N(CC[C@H](c1ccccc1)c1cc(CCOc2ccc(CCNCc3cccc(O)c3)cc2)ccc1O)C(C)C [Example 18, 2-((1R)-3-Diisopropylamino-1-phenyl-propyl)-4-(2-{4-[2-(3-hydroxy-benzylamino)-ethyl]-phenoxy}-ethyl)-phenol]",> 10.4 nM
9,"CC(C)N(CC[C@H](c1ccccc1)c1cc(CCOc2ccc(CCNC(=O)[C@]34C[C@H]5C[C@H](C[C@H](C5)C3)C4)cc2)ccc1O)C(C)C [Example 6, (3S,5S,7S)-N-{2-[4-(2-{3-[(1R)-3-(diisopropylamino)-1-phenylpropyl]-4-hydroxyphenyl}ethoxy)phenyl]ethyl}adamantane-1-carboxamide]",4.99 nM
10,"CC(C)N(CC[C@H](c1ccccc1)c1cc(CCOc2ccc(CCNCc3cc(F)cc(F)c3O)cc2)ccc1O)C(C)C [Example 22, 2-{[2-(4-{2-[3-((1R)-3-Diisopropylamino-1-phenyl-propyl)-4-hydroxy-phenyl]-ethoxy}-phenyl)-ethylamino]-methyl}-4,6-difluoro-phenol]",7.11 nM
11,"CC(C)N(CC[C@H](c1ccccc1)c1cc(CCOc2ccc(CCNC(=O)c3ccc(O)c(F)c3)cc2)ccc1O)C(C)C [Example 5, N-[2-(4-{2-[3-((1R)-3-Diisopropylamino-1-phenyl-propyl)-4-hydroxy-phenyl]-ethoxy}-phenyl)-ethyl]-3-fluoro-4-hydroxy-benzamide]",5.36 nM

# The next compounds have a lower Ki than those just listed; values first:
row,Ki,SMILES
1,3.59 nM,"CC(C)N(CC[C@H](c1ccccc1)c1cc(CCOc2ccc(CCNC(=O)C3CCCC3)cc2)ccc1O)C(C)C [Example 3, Cyclopentanecarboxylic acid [2-(4-{2-[3-((1R)-3-diisopropylamino-1-phenyl-propyl)-4-hydroxy-phenyl]-ethoxy}-phenyl)-ethyl]-amide]"
2,2.69 nM,"CC(C)N(CC[C@H](c1ccccc1)c1cc(CCOc2ccc(CCNCc3cccc(O)c3F)cc2)ccc1O)C(C)C [Example 19, 3-[({2-[4-(2-{3-[(1R)-3-(diisopropylamino)-1-phenylpropyl]-4-hydroxyphenyl}ethoxy)phenyl]ethyl}amino)methyl]-2-fluorophenol]"
3,2.15 nM,"CC(C)N(CC[C@H](c1ccccc1)c1cc(CCOc2ccc(CCNC(=O)c3cc(Cl)c(O)c(Cl)c3)cc2)ccc1O)C(C)C [Example 24, 3,5-Dichloro-N-[2-(4-{2-[3-((1R)-3-diisopropylamino-1-phenyl-propyl)-4-hydroxy-phenyl]-ethoxy}-phenyl)-ethyl]-4-hydroxy-benzamide]"
4,1.7 nM,"CC(C)N(CC[C@H](c1ccccc1)c1cc(CCOc2ccc(CCNC(=O)Cc3ccc(O)c(Cl)c3)cc2)ccc1O)C(C)C [Example 2, 2-(3-Chloro-4-hydroxy-phenyl)-N-[2-(4-{2-[3-((1R)-3-diisopropylamino-1-phenyl-propyl)-4-hydroxy-phenyl]-ethoxy}-phenyl)-ethyl]-acetamide]"
5,1.55 nM,"CC(C)N(CC[C@H](c1ccccc1)c1cc(CCOc2ccc(CCNCc3cc(F)c(O)c(F)c3)cc2)ccc1O)C(C)C [Example 15, 4-{[2-(4-{2-[3-((1R)-3-Diisopropylamino-1-phenyl-propyl)-4-hydroxy-phenyl]-ethoxy}-phenyl)-ethylamino]-methyl}-2,6-difluoro-phenol]"
6,1.4 nM,"CC(C)N(CC[C@H](c1ccccc1)c1cc(CCOc2ccc(CCNCc3cccc(F)c3O)cc2)ccc1O)C(C)C [Example 14, 2-[(1R)-3-(diisopropylamino)-1-phenylpropyl]-4-[2-(4-{2-[(3-fluoro-2-hydroxybenzyl)amino]ethyl}phenoxy)ethyl]phenol]"
7,1.4 nM,"CC(C)N(CC[C@H](c1ccccc1)c1cc(CCOc2ccc(CCN(C)C)cc2)ccc1O)C(C)C [Example 8, 2-((1R)-3-Diisopropylamino-1-phenyl-propyl)-4-{2-[4-(2-dimethylamino-ethyl)-phenoxy]-ethyl}-phenol]"
8,1.32 nM,"CC(C)N(CC[C@H](c1ccccc1)c1cc(CCOc2ccc(CCNS(=O)(=O)c3ccc(O)cc3)cc2)ccc1O)C(C)C [Example 27, N-[2-(4-{2-[3-((1R)-3-diisopropylamino-1-phenyl-propyl)-4-hydroxy-phenyl]-ethoxy}-phenyl)-ethyl]-4-hydroxy-benzenesulfonamide]"
9,1.19 nM,CC(C)N(CC[C@H](c1ccccc1)c1cc(CCOc2ccc(CCNC(=O)CC3CC3)cc2)ccc1O)C(C)C [Example 4]
10,1 nM,"CC(C)N(CC[C@H](c1ccccc1)c1cc(CCOc2ccc(CCNCc3cccc(O)c3Cl)cc2)ccc1O)C(C)C [Example 17, 2-chloro-3-[({2-[4-(2-{3-[(1R)-3-(diisopropylamino)-1-phenylpropyl]-4-hydroxyphenyl}ethoxy)phenyl]ethyl}amino)methyl]phenol]"
11,0.785 nM,"CC(C)N(CC[C@H](c1ccccc1)c1cc(CCOc2ccc(CCNCc3ccccc3)cc2)ccc1O)C(C)C [Example 9, 4-{2-[4-(2-Benzylamino-ethyl)-phenoxy]-ethyl}-2-((1R)-3-diisopropylamino-1-phenyl-propyl)-phenol]"
12,0.751 nM,"CC(C)N(CC[C@H](c1ccccc1)c1cc(CCOc2ccc(CCNC(=O)c3ccc(F)c(O)c3)cc2)ccc1O)C(C)C [Example 25, 4-Fluoro-N-[2-(4-{2-[3-((1R)-3-diisopropylamino-1-phenyl-propyl)-4-hydroxy-phenyl]-ethoxy}-phenyl)-ethyl]-3-hydroxy-benzamide]"
13,0.727 nM,"CC(C)N(CC[C@H](c1ccccc1)c1cc(CCOc2ccc(CCNC(=O)c3ccc(O)cc3Cl)cc2)ccc1O)C(C)C [Example 7, 2-Chloro-N-[2-(4-{2-[3-((1R)-3-diisopropylamino-1-phenyl-propyl)-4-hydroxy-phenyl]-ethoxy}-phenyl)-ethyl]-4-hydroxy-benzamide]"
14,0.705 nM,"CC(C)N(CC[C@H](c1ccccc1)c1cc(CCOc2ccc(CCNC(=O)c3ccc(O)cc3)cc2)ccc1O)C(C)C [Example 26, 4-Hydroxy-N-[2-(4-{2-[3-((1R)-3-diisopropylamino-1-phenyl-propyl)-4-hydroxy-phenyl]-ethoxy}-phenyl)-ethyl]-benzamide]"
15,0.512 nM,"CC(C)N(CC[C@H](c1ccccc1)c1cc(CCOc2ccc(CCNC(=O)c3ccc(O)c(Cl)c3)cc2)ccc1O)C(C)C [Example 1, 3-Chloro-N-[2-(4-{2-[3-((1R)-3-diisopropylamino-1-phenyl-propyl)-4-hydroxy-phenyl]-ethoxy}-phenyl)-ethyl]-4-hydroxy-benzamide]"
